This passage reports Km results from PMC6680314, “Characterization of the recombinant Brettanomyces anomalus β‐glucosidase and its potential for bioflavouring” (Journal of Applied Microbiology, 2016).

SMILES strings stand for the structures.

Test [1] relates to T1, B. anomalus β-glucosidase (YV396 β-glucosidase).
T1 construct: gene GH3 beta-glucosidase; full gene (2523 bp incl. stop, about 840 residues), codon optimised, pET28-YV396-His6, tag kept, E. coli BL21(DE3), Ni-Sepharose and Superdex 200
Description: glucose release, GOD-PAP assay at […] nm, Michaelis-Menten fit. Type of test: biochemical, Brettanomyces anomalus. The settings on record: McIlvaine buffer pH 5.75, 37 °C (optimum of this enzyme); free enzyme; read-out: pH 5.75 37°C / K M.

The next test relates to T2, almond β-glucosidase.
T2 construct: gene GH1 beta-glucosidase
The description is as above. In kind it is biochemical, Prunus dulcis. The following applies: McIlvaine buffer pH 5.75, 37 °C; commercial preparation; read-out: pH 5.75 37°C / K M.

As to `N#C[C@H](O[C@@H]1O[C@H](CO[C@@H]2O[C@H](CO)[C@@H](O)[C@H](O)[C@H]2O)[C@@H](O)[C@H](O)[C@H]1O)c1ccccc1` [amygdalin], the Km was determined as 1 ± 0.05 mM in test [1] and 10.1 ± 0.13 mM in the test with almond β-glucosidase.

For the compound `OC[C@H]1O[C@@H](O[C@H]2[C@H](O)[C@@H](O)C(O)O[C@@H]2CO)[C@H](O)[C@@H](O)[C@@H]1O` (stereo partly drawn) [cellobiose], the Km was found to be 15.1 ± 0.73 mM in test [1] and 0.34 ± 0.08 mM in the test on almond β-glucosidase.

Consider `OCc1ccccc1O[C@@H]1O[C@H](CO)[C@@H](O)[C@H](O)[C@H]1O` [salicin], for which the results for the Km (in test [1]; in the test with almond β-glucosidase) were 1.01 ± 0.18 mM and 19.6 ± 2.06 mM, respectively.
